Entries after “also recorded” stand apart in the source; their conditions may differ.
Experiments:
[1] = tested on: human vascular endothelial cells (HUVECs)
Procedure: Then, 2 mL of trypsin/EDTA was added to the cells, and the cells were detached by incubation at 37° C. in a 5% CO2 environment. After the cell detachment, 5 mL/dish of a culture medium was added, and the cells were transferred to a 15-mL tube and centrifuged at 1200 rpm for 5 minutes in a centrifuge. The supernatant was removed, and then, the number of cells was adjusted to a cell density of 5×10^4 cells/mL using a cell counting kit by the addition of 5 mL of a culture medium. Then, two 6-well plates were used, and the solution with the adjusted HUVEC density was inoculated at 4 mL/well to 3 wells of each plate. Each phytochemical component was added at 4 μL (final concentration: 10 μM)/well to one well of each plate. Also, a phytochemical dissolving solution DMSO was added at 4 μL/well to the remaining wells to prepare a control. […]
Serial dilutions of auraptene were added to the cells, and the cell death of the HUVECs caused by heat stress was observed by crystal violet staining.

ABCD3 = ABCD3 expression in HUVECs, antibody staining, confocal microscopy; assay type: cell-based, human; conditions: usual culture and heat stress load (40° C. for 3 days), vs DMSO
Procedure: (§1) Then, six 35-mm dishes were provided, and 2 mL/dish of the solution with the adjusted HUVEC density was inoculated. Auraptene (10 mM) and tangeretin (10 mM) were each added at 2 μL (final concentration: 10 μM)/dish to two dishes. Also, DMSO was added at 2 μL/dish to the remaining 2 dishes to prepare a control.
(§2) The supernatant of the HUVECs cultured in each 35-mm dish was removed, and 2 mL/dish of 4% paraformaldehyde in a phosphate buffer solution was added. The cells were left standing at room temperature for 1 hour.
(§3) The solution was removed, and then, the cells were rinsed twice. 2 mL/dish of 0.5% Triton-X00 (Wako Pure Chemical Industries, Ltd.) in PBS was added, and the cells were left standing at room temperature for 5 minutes. The solution was removed, and then, the cells were rinsed twice. 1 mL/dish of an anti-ABCD3 antibody, an anti-PPARα antibody or an anti-PPARγ antibody, each of which was diluted 150-fold with a FACS buffer, was added, and the cells were left standing at room temperature for 2 hours for reaction.
The solution was removed, and then, the cells were rinsed twice. […] Two drops of Diamond Antifade Mountant with DAPI were added to the cells, and a round glass cover was put on the cells, followed by fluorescence photographing under a confocal laser scanning microscope.

[2] = tested on: fat droplets in human vascular endothelial cells (HUVECs); experiment: Intracellular fat droplets, BODIPY staining, confocal microscopy; assay type: cell-based
Procedure: as §1, with “Then, nine” for “Then, six”, “to three” for “to two”, “remaining 3” for “remaining 2”
The supernatant of the HUVECs cultured in each 35-mm dish was removed, and 2 mL/dish of 4% paraformaldehyde in a phosphate buffer solution was added. The cells were left standing at room temperature for 1 hour for cell fixation. The solution was removed, and then, the cells were rinsed twice. 1 mL/dish of BODIPY diluted 2000-fold with a FACS buffer was added, and the cells were left standing at room temperature for 30 minutes in the dark for reaction.
(§4) The solution was removed, and then, the cells were rinsed twice. Two drops of Diamond Antifade Mountant with DAPI were added to the cells, and a round glass cover was put on the cells, followed by fluorescence photographing under a confocal laser scanning microscope.

PPARγ = PPARγ expression in HUVECs, antibody staining, confocal microscopy; assay type: cell-based, human
Procedure: as §1, §2, §3
as §4, with “The solution was removed, and then, the cells were rinsed twice. 1 mL/dish of DyLight 649-labeled anti-Rabbit IgG antibody diluted 500-fold with a FACS buffer was added, and the cells were left standing at room temperature for 1 hour in the dark for reaction. The” for “The”

[3] = tested on: human vascular endothelial cells (HUVECs); experiment: Suppression of cell death by addition of medium chain fatty acid, crystal violet / phase contrast microscopy; assay type: cell-based; conditions: auraptene 5 μM used alone, printed at 37° C. (FIG. 19A)
[4] = tested on: human vascular endothelial cells (HUVECs); experiment: DiOC6 / PI staining and flow cytometry of HUVECs under heat stress load; assay type: cell-based; conditions: heat stress load 40° C. for 2 days, flow cytometry, vs DMSO
Procedure: Two days later, the culture solution of each well was removed with an aspirator. […] The supernatant was removed, and then, 5 mL of a culture medium at 37° C. was added to the cells and stirred. After the stirring, DiOC6 (final concentration: 80 nM) was added to each 15-mL tube and reacted at the same temperature as the culture temperature for 30 minutes.
The supernatant was removed, and then, 1 mL of a culture medium was added to the cells, and 2 μL of PI (Sigma-Aldrich Co. LLC) was added. The cells thus supplemented were transferred to a FACS tube and measured in a flow cytometer (BD).
In order to quantify the effects, the cytotoxicity suppressive effects of auraptene (component A) and tangeretin (component T) inhibiting the cell death caused by the load of heat stress were quantified using DiOC6 staining and flow cytometry as described above. The DiOC6 dye is a reagent for measuring mitochondrial activity and is a reagent that can perform measurement based on the attenuation of the amount of fluorescence by cytotoxicity (cell death, etc.).

[5] = Table 2 summary, HUVECs 40° C., 37° C. as comparative control

CC(C)=CCC/C(C)=C/COc1ccc2ccc(=O)oc2c1 [auraptene, 7-geranyloxycoumarin]
cell survival by crystal violet staining ([1]; HUVECs cultured at 40° C. for 3 days, vs DMSO): evidently increased cell survival | concentration at which the cell death suppressive effect was confirmed (value in brackets) ([1]; HUVECs, 40° C. for 3 days, crystal violet staining): 600 nM | concentration at which the cell death suppressive effect was confirmed ([1]; HUVECs, 40° C. for 3 days, serial dilutions, crystal violet staining): 0.6 µM | Cytotoxicity (cell death) [1, 5]: Suppressed | change in the expression of ABCD3 (ABCD3): change in the expression of ABCD3 was not observed; also recorded: not found | amount of fat droplets under heat stress load ([2]; HUVECs, 40° C. for 2 days, 10 μM, BODIPY, vs DMSO): decrease in the amount of fat droplets; also recorded: decreased the amount of fat droplets | amount of fat droplets at usual culture ([2]; HUVECs, usual culture (37° C.), 10 μM, vs DMSO): no change in the amount of fat droplets | Amount of fat droplets [2, 5]: Decreased | expression of PPARγ (PPARγ; HUVECs, 40° C. and 1 day, 10 μM, vs DMSO): increase in the expression of PPARγ | PPARγ (PPARγ; [5]): Unchanged | overall number of cells, auraptene alone [3]: increase the overall number of cells | number of DiOC6 staining-positive cells (suppression of cytotoxicity, cell death) [4]: increased the number of DiOC6 staining-positive cells

— patent US11559512B2, “Composition for prevention, alleviation, and/or treatment of heat illness” (priority 2017, dated 2023)
